In ChEMBL document CHEMBL5236650, “Nonhydrolyzable d‑phenylalanine-benzoxazole derivatives retain antitubercular activity” (Bioorg Med Chem Lett, 2023):
Converted amounts (≈) assume the structure as drawn.

Key:
[1] = tested on: Mycobacterium tuberculosis; experiment: Antitubercular activity against Mycobacterium tuberculosis H37Rv ATCC 27294 cultured in GAST/Fe media assessed as inhibition of bacterial growth incubated for 7 days; type: functional; details: H37Rv ATCC 27294, 168 h, time 7 day
[2] = tested on: Mycobacterium tuberculosis; experiment: Antitubercular activity against Mycobacterium tuberculosis H37Rv ATCC 27294 cultured in 7H9/ADC/Tw media assessed as inhibition of bacterial growth incubated for 7 days; type: functional; details: H37Rv ATCC 27294, 168 h, time 7 day
[3] = Drug metabolism in mouse plasma assessed as 2-(4-methoxyphenyl)benzo[d]oxazol-5-amine formation; type: ADME, cell-free
[4] = Stability in mouse plasma assessed as half life; type: ADME, cell-free
[5] = Protein binding in mouse plasma assessed as free fraction; type: ADME, cell-free
[6] = tested on: Mycobacterium tuberculosis; experiment: Antitubercular activity against Mycobacterium tuberculosis H37Rv ATCC 27294 cultured in 7H9/DPPC/casitone/Tx media assessed as inhibition of bacterial growth incubated for 7 days; type: functional; details: H37Rv ATCC 27294, 168 h, time 7 day

| Structure (SMILES) | MIC [1] [µM] | MIC [2] [µM] | Drug metabolism [3] | half-life [4] [h] | Fu [5] [%] | fraction unbound [5] | MIC [6] [µM] |
| --- | --- | --- | --- | --- | --- | --- | --- |
| COc1ccc(-c2nc3cc(NC(=O)[C@H](N)Cc4ccccc4)ccc3o2)cc1 | 1.56 (≈ 0.604 µg/mL) | 1.56 (≈ 0.604 µg/mL) | Metabolite_Detected | 0.417 |  |  |  |
| COc1ccc(-c2nc3cc(NC[C@H](N)Cc4ccccc4)ccc3o2)cc1 | 9.4 (≈ 3.51 µg/mL) | 12.5 (≈ 4.67 µg/mL) |  | > 4 | < 0.1 |  |  |
| COc1ccc(-c2nc3cc(NC(=O)[C@H](N)[C@@H](O)c4ccccc4)ccc3o2)cc1 | 25 (≈ 10.1 µg/mL) | > 50 |  |  |  |  |  |
| CCOC(=O)COc1ccc(-c2nc3cc(NC(=O)[C@H](N)Cc4ccccc4)ccc3o2)cc1 | 2.3 (≈ 1.06 µg/mL) | 3.13 (≈ 1.44 µg/mL) |  |  |  |  |  |
| COc1ccc(-c2nc3cc(N)ccc3o2)cc1 |  | ≥ 12.5 |  |  |  |  |  |
| N[C@@H](CC(=O)Nc1ccc2oc(-c3ccc(O)cc3)nc2c1)Cc1ccccc1 | 19 (≈ 7.36 µg/mL) | 19 (≈ 7.36 µg/mL) |  |  |  |  |  |
| N[C@H](Cc1ccccc1)C(=O)Nc1ccc2oc(-c3ccc(O)cc3)nc2c1 | 2.3 (≈ 0.859 µg/mL) | 1.2 (≈ 0.448 µg/mL) |  |  |  |  |  |
| COc1ccc(-c2nc3cc(-n4cc([C@H](N)Cc5ccccc5)nn4)ccc3o2)cc1 | 6.25 (≈ 2.57 µg/mL) | 6.25 (≈ 2.57 µg/mL) |  | > 4 | 0.65 |  |  |
| N[C@H](CCc1ccccc1)C(=O)Nc1ccc2oc(-c3ccc(O)cc3)nc2c1 | 3.13 (≈ 1.21 µg/mL) | 3.13 (≈ 1.21 µg/mL) |  |  |  |  |  |
| N[C@H](Cc1ccccc1)C(=O)Nc1ccc2ocnc2c1 | 25 (≈ 7.03 µg/mL) | > 50 |  |  |  |  |  |
| C#CCOc1ccc(-c2nc3cc(NC(=O)[C@H](N)Cc4ccccc4)ccc3o2)cc1 |  | 1.2 (≈ 0.494 µg/mL) |  | 5 |  | < 0.004 |  |
| N[C@H](Cc1ccccc1)C(=O)Nc1ccc2oc(-c3ccc(OC(F)(F)F)cc3)nc2c1 | 3.13 (≈ 1.38 µg/mL) | 3.13 (≈ 1.38 µg/mL) |  |  |  |  |  |
| COc1ccc(Cc2nc3cc(NC(=O)[C@H](N)Cc4ccccc4)ccc3o2)cc1 | 3.13 (≈ 1.26 µg/mL) | 3.13 (≈ 1.26 µg/mL) |  |  |  |  |  |
| COc1ccc(-c2nc3cc(C(=O)NC[C@H](N)Cc4ccccc4)ccc3o2)cc1 |  | 6.25 (≈ 2.51 µg/mL) |  | > 4 | 1.2 |  | 6.25 (≈ 2.51 µg/mL) |
| COc1ccc(-c2nc3cc(NC(=S)[C@H](N)Cc4ccccc4)ccc3o2)cc1 | 19 (≈ 7.67 µg/mL) | 37 (≈ 14.9 µg/mL) |  |  |  |  |  |
